Measured values: PubChem BioAssay (NCI)
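Compound exposure: 48 hours, 5 concentrations, 96-well plates. TGI: concentration producing complete growth inhibition.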 *1 amine or outer side, *2 acyl side, *3 side chain or, on linkers, in order; H or OH if unused. Where a SMILES comes first, the peptide text is derived from it. [ ]: non-standard residue; d: D form. The star is where a group is joined. X31 = CC(=O)N(C)SCC(N[*:1])C(=O)[*:2]; Fmoc = O=C(OCC1c2ccccc2-c2ccccc21)*; For = O=C*

Tests used:
Test in all cases: inhibition of tumour cell growth, NCI panel, 48 h
DU-145 prostate = system: DU-145 prostate
HCC-2998 colon = system: HCC-2998 colon
HT29 colon = system: HT29 colon
IGROV1 ovarian = system: IGROV1 ovarian
M14 melanoma = system: M14 melanoma
MDA-MB-231 breast = system: MDA-MB-231 breast
MDA-N = system: MDA-N
NCI-H226 lung = system: NCI-H226 lung
OVCAR-3 ovarian = system: OVCAR-3 ovarian
PC-3 prostate = system: PC-3 prostate
SNB-19 CNS = system: SNB-19 CNS
SW-620 colon = system: SW-620 colon
T-47D breast = system: T-47D breast

Row | Compound | TGI (DU-145 prostate) [µM] | TGI (HCC-2998 colon) [µM] | TGI (HT29 colon) [µM] | TGI (IGROV1 ovarian) [µM] | TGI (M14 melanoma) [µM] | TGI (MDA-MB-231 breast) [µM] | TGI (MDA-N) [µM] | TGI (NCI-H226 lung) [µM] | TGI (OVCAR-3 ovarian) [µM] | TGI (PC-3 prostate) [µM] | TGI (SNB-19 CNS) [µM] | TGI (SW-620 colon) [µM] | TGI (T-47D breast) [µM]
1 | NCCC1([N+](=O)[O-])CCNCC1 | > 100 | > 100 | > 100 | > 100 | > 100 | > 100 | > 100 | > 100 | > 100 | > 100 | > 100 | > 100 | > 100
2 | CCN1C(=O)CS/C1=N\NC(=O)CSc1nc2ccccc2c(=O)n1CC | > 100 | > 100 |  | > 100 | > 100 | > 100 | > 100 | > 100 | > 100 | > 100 | > 100 | > 100 | > 100
3 | CC(=O)N(C)SCC(NC(=O)C(Cc1ccccc1)NC(=O)OCC1c2ccccc2-c2ccccc21)C(=O)NC(Cc1ccccc1)C(=O)NC(Cc1cn(C=O)c2ccccc12)C(=O)NC(CCCCNC(=O)OCC1c2ccccc2-c2ccccc21)C(=O)NC(C(=O)NC(CSN(C)C(C)=O)C(=O)NC(C(N)=O)C(C)O)C(C)O (stereo not given) (Fmoc-F[X31]FW(For)K(Fmoc)T[X31]T-NH2; configuration not given here) | > 100 | > 100 | > 100 | > 100 | > 100 | 51.4 | > 100 | > 100 | > 100 | > 100 | > 100 | > 100 | > 100
4 | CC(=O)NC(CO)C(=O)NC(Cc1ccc(O)cc1)C(=O)NCC(N)=O (stereo not drawn) (Ac-Ser-Tyr-Gly-NH2; configuration not given here) | > 100 | > 100 | > 100 | > 100 | > 100 | > 100 | > 100 | > 100 | > 100 | > 100 | > 100 | > 100 | > 100
5 | C#CC(O)Cc1ccc(OC)c2occc12 (stereo not given) | > 100 | > 100 | > 100 | > 100 | > 100 | > 100 | > 100 | > 100 | > 100 | > 100 | > 100 | > 100 | > 100
6 | N#CCN(Cc1ccccc1)[C@@H]1CCC[C@]1(O)C#Cc1ccc2c(c1)OCO2 | > 100 | 31.5 | 36.1 | 39.7 | 32 | 36.1 | 34.2 | 33.6 | 28.9 | 50.7 | 41.5 | 58.6 | 69.5
7 | COC(=O)CCC(C)[C@H]1CCC2C3C(C[C@H](OC(C)=O)[C@@]21C)[C@@]1(C)CCC2(C[C@H]1C[C@H]3OC(C)=O)OOC1(CCCCC1)OO2 (stereo not given in full) | > 100 | > 100 | > 100 | 20.8 | > 100 | > 100 | > 100 | > 100 | > 100 | > 100 | > 100 | > 100 | > 100
8 | Cc1nc(Nc2nc3ccccc3[nH]2)[nH]c(=O)c1CCO | > 100 | > 100 | > 100 | > 57 | 98.9 | > 100 | > 100 | > 96 | > 100 | > 100 | > 100 | > 100 | > 100
9 | COc1cccc(C(=O)N[C@@H]2[C@H](O)[C@@H](CO)O[C@H]2n2cnc3c(N)ncnc32)c1 | > 100 | > 100 | > 100 | > 100 | > 100 | > 100 | > 100 | > 100 | > 100 | > 100 | > 100 | > 100 | > 100
10 | CCCN(CCC)C(=O)c1c(Cl)c2cccnc2n2c(C)cnc12 | > 100 | > 100 | > 100 | > 100 | > 100 | > 100 | > 100 | > 100 | > 100 | 98.6 | > 100 | > 100 | > 100
11 | CCCCCCC(=O)OC[n+]1cccc(-c2c(COC(=O)NC(C)C)c(COC(=O)NC(C)C)c3n2CCC3)c1 | 98.4 | > 100 | > 100 | > 86.6 | > 100 | > 100 | > 100 | > 100 | > 100 | > 100 | > 100 | > 100 | > 100
12 | CC(=O)NC1C(OCc2ccccc2)OC(CO)C(O)C1OCC(=O)N1CCCC1C(=O)NC(CCC(=O)NCCCCCNc1c2ccccc2nc2cccc([N+](=O)[O-])c12)C(N)=O (stereo not given) | 0.107 | 0.027 | 12.5 | 0.86 | 0.0591 | 0.0426 | 0.0499 | 0.514 | 0.142 | 0.0293 | 0.493 | 0.0424 | 8.41
